This passage reports Activity, Tm and ΔTm results from ChEMBL document CHEMBL1140998, “RNA bandages for photoregulating in vitro protein synthesis” (Bioorg Med Chem Lett, 2008).

In experiment [1] the test system is Aequorea victoria. Kind of experiment: Blockade of Aequorea victoria GFP mRNA (1-26) translation activity assessed as reduction in protein expression level at a drug:mRNA molar ratio of 12:1 measured prior to UV irradiation by gel electrophoresis. Also on record: scale not given: the % may be the effect or the level left.
Experiment [2] relates to Aequorea victoria. Briefly: Binding affinity to Aequorea victoria GFP mRNA (1-26) assessed as melting temperature.
For experiment [3], the system named is Aequorea victoria. Briefly: Blockade of Aequorea victoria GFP mRNA (1-26) translation activity assessed as reduction in protein expression level measured after UV irradiation at a drug:mRNA molar ratio of 12:1 measured after UV irradiation by gel electrophoresis.
The subject of experiment [4] is Aequorea victoria. Kind of experiment: Binding affinity to Aequorea victoria GFP mRNA (1-26) assessed as change in melting temperature.
In experiment [5] the test system is Aequorea victoria. Kind of experiment: Blockade of Aequorea victoria GFP mRNA (1-26) translation activity assessed as reduction in protein expression level at a drug:mRNA molar ratio of 2:1 measured after UV irradiation by gel electrophoresis.
The test system of experiment [6] is Aequorea victoria. Briefly: Blockade of Aequorea victoria GFP mRNA (1-26) translation activity assessed as reduction in protein expression level at a drug:mRNA molar ratio of 2:1 measured prior to UV irradiation by gel electrophoresis. Also on record: scale not given: the % may be the effect or the level left.

Calls of active or inactive are those of the source. No cut-off for these calls is given here.

Usually ΔTm stands for the change in melting temperature against a reference sample. In the case of `CC(OC(=O)NCCCCCCOC[C@H]1O[C@@H](n2ccc(N)nc2=O)[C@H](O)[C@@H]1OP(=O)(O)OC[C@H]1O[C@@H](n2ccc(=O)[nH]c2=O)[C@H](O)[C@@H]1OP(=O)(O)OC[C@H]1O[C@@H](n2cnc3c(N)ncnc32)[C@H](O)[C@@H]1OP(=O)(O)OC[C@H]1O[C@@H](n2cnc3c(=O)[nH]c(N)nc32)[C@H](O)[C@@H]1OP(=O)(O)OC[C@H]1O[C@@H](n2ccc(N)nc2=O)[C@H](O)[C@@H]1OP(=O)(O)OC[C@H]1O[C@@H](n2ccc(N)nc2=O)[C@H](O)[C@@H]1OP(=O)(O)OC[C@H]1O[C@@H](n2cnc3c(N)ncnc32)[C@H](O)[C@@H]1OP(=O)(O)OC[C@H]1O[C@@H](n2cnc3c(=O)[nH]c(N)nc32)[C@H](O)[C@@H]1OC[C@H]1O[C@@H](n2ccc(N)nc2=O)[C@H](O)[C@@H]1OC[C@H]1O[C@@H](n2ccc(=O)[nH]c2=O)[C@H](O)[C@@H]1O)c1cc(CN2C(=O)CC(SCCCO[C@H]3[C@@H](O)[C@H](n4ccc(=O)[nH]c4=O)O[C@@H]3COP(=O)(O)O[C@H]3[C@@H](O)[C@H](n4cnc5c(=O)[nH]c(N)nc54)O[C@@H]3COP(=O)(O)O[C@H]3[C@@H](O)[C@H](n4ccc(=O)[nH]c4=O)O[C@@H]3COP(=O)(O)O[C@H]3[C@@H](O)[C@H](n4cnc5c(=O)[nH]c(N)nc54)O[C@@H]3COP(=O)(O)O[C@H]3[C@@H](O)[C@H](n4cnc5c(=O)[nH]c(N)nc54)O[C@@H]3COP(=O)(O)O[C@H]3[C@@H](O)[C@H](n4ccc(=O)[nH]c4=O)O[C@@H]3COP(=O)(O)O[C@H]3[C@@H](O)[C@H](n4cnc5c(N)ncnc54)O[C@@H]3COP(=O)(O)O[C@H]3[C@@H](O)[C@H](n4ccc(N)nc4=O)O[C@@H]3CO)C2=O)ccc1[N+](=O)[O-]` (some centres not stated), the Activity in the experiment on Aequorea victoria [1] amounted to 10%. Besides, in the experiment on Aequorea victoria [2], the Tm was found to be 62.2 °C. Moreover, in the experiment with Aequorea victoria [3], the outcome was Active. The ΔTm with Aequorea victoria [4] came to 32 °C.
`CC(OC(=O)NCCCCCCOC[C@H]1O[C@@H](n2ccc(N)nc2=O)[C@H](O)[C@@H]1OP(=O)(O)OC[C@H]1O[C@@H](n2ccc(=O)[nH]c2=O)[C@H](O)[C@@H]1OP(=O)(O)OC[C@H]1O[C@@H](n2cnc3c(N)ncnc32)[C@H](O)[C@@H]1OP(=O)(O)OC[C@H]1O[C@@H](n2cnc3c(=O)[nH]c(N)nc32)[C@H](O)[C@@H]1OP(=O)(O)OC[C@H]1O[C@@H](n2ccc(N)nc2=O)[C@H](O)[C@@H]1OP(=O)(O)OC[C@H]1O[C@@H](n2ccc(N)nc2=O)[C@H](O)[C@@H]1OP(=O)(O)OC[C@H]1O[C@@H](n2cnc3c(N)ncnc32)[C@H](O)[C@@H]1OP(=O)(O)OC[C@H]1O[C@@H](n2cnc3c(=O)[nH]c(N)nc32)[C@H](O)[C@@H]1OC[C@H]1O[C@@H](n2ccc(N)nc2=O)[C@H](O)[C@@H]1OC[C@H]1O[C@@H](n2ccc(=O)[nH]c2=O)[C@H](O)[C@@H]1O)c1cc(CN2C(=O)CC(SCCCO[C@H]3[C@@H](O)[C@H](n4ccc(=O)[nH]c4=O)O[C@@H]3COP(=O)(O)O[C@H]3[C@@H](O)[C@H](n4cnc5c(=O)[nH]c(N)nc54)O[C@@H]3COP(=O)(O)O[C@H]3[C@@H](O)[C@H](n4ccc(=O)[nH]c4=O)O[C@@H]3COP(=O)(O)O[C@H]3[C@@H](O)[C@H](n4cnc5c(=O)[nH]c(N)nc54)O[C@@H]3COP(=O)(O)O[C@H]3[C@@H](O)[C@H](n4cnc5c(=O)[nH]c(N)nc54)O[C@@H]3COP(=O)(O)O[C@H]3[C@@H](O)[C@H](n4ccc(=O)[nH]c4=O)O[C@@H]3COP(=O)(O)O[C@H]3[C@@H](O)[C@H](n4cnc5c(N)ncnc54)O[C@@H]3COP(=O)(O)O[C@H]3[C@@H](O)[C@H](n4ccc(N)nc4=O)O[C@@H]3CO[C@H]3[C@@H](O)[C@H](n4ccc(N)nc4=O)O[C@@H]3CO[C@H]3[C@@H](O)[C@H](n4cnc5c(=O)[nH]c(N)nc54)O[C@@H]3CO)C2=O)ccc1[N+](=O)[O-]` (some centres not stated): in the experiment on Aequorea victoria [5], the outcome was Active. The Tm in the experiment on Aequorea victoria [2] was found to be 72.4 °C. The Activity in the experiment on Aequorea victoria [6] was 100%. The ΔTm in the experiment on Aequorea victoria [4] was 20 °C.
Regarding `CC(OC(=O)NCCCCCCOC[C@H]1O[C@@H](n2ccc(N)nc2=O)[C@H](O)[C@@H]1OP(=O)(O)OC[C@H]1O[C@@H](n2ccc(N)nc2=O)[C@H](O)[C@@H]1OP(=O)(O)OC[C@H]1O[C@@H](n2cnc3c(N)ncnc32)[C@H](O)[C@@H]1OP(=O)(O)OC[C@H]1O[C@@H](n2cnc3c(=O)[nH]c(N)nc32)[C@H](O)[C@@H]1OP(=O)(O)OC[C@H]1O[C@@H](n2ccc(N)nc2=O)[C@H](O)[C@@H]1OP(=O)(O)OC[C@H]1O[C@@H](n2ccc(=O)[nH]c2=O)[C@H](O)[C@@H]1OP(=O)(O)OC[C@H]1O[C@@H](n2ccc(=O)[nH]c2=O)[C@H](O)[C@@H]1OP(=O)(O)OC[C@H]1O[C@@H](n2cnc3c(=O)[nH]c(N)nc32)[C@H](O)[C@@H]1OP(=O)(O)OC[C@H]1O[C@@H](n2cnc3c(=O)[nH]c(=O)[nH]c32)[C@H](O)[C@@H]1OP(=O)(O)OC[C@H]1O[C@@H](n2cnc3c(=O)[nH]c(=O)[nH]c32)[C@H](O)[C@@H]1OP(=O)(O)OC[C@H]1O[C@@H](n2ccc(=O)[nH]c2=O)[C@H](O)[C@@H]1OP(=O)(O)OC[C@H]1O[C@@H](n2ccc(N)nc2=O)[C@H](O)[C@@H]1O)c1cc(CN2C(=O)CC(SCCCO[C@H]3[C@@H](O)[C@H](n4cnc5c(=O)[nH]c(N)nc54)O[C@@H]3COP(=O)(O)O[C@H]3[C@@H](O)[C@H](n4cnc5c(N)ncnc54)O[C@@H]3COP(=O)(O)O[C@H]3[C@@H](O)[C@H](n4ccc(=O)[nH]c4=O)O[C@@H]3COP(=O)(O)O[C@H]3[C@@H](O)[C@H](n4ccc(N)nc4=O)O[C@@H]3CO[C@@H]3[C@H](O)[C@@H](COP(=O)(O)O[C@H]4[C@@H](O)[C@H](n5cnc6c(=O)[nH]c(N)nc65)O[C@@H]4COP(=O)(O)O[C@H]4[C@@H](O)[C@H](n5ccc(=O)[nH]c5=O)O[C@@H]4COP(=O)(O)O[C@H]4[C@@H](O)[C@H](n5cnc6c(=O)[nH]c(N)nc65)O[C@@H]4COP(=O)(O)O[C@H]4[C@@H](O)[C@H](n5cnc6c(=O)[nH]c(N)nc65)O[C@@H]4COP(=O)(O)O[C@H]4[C@@H](O)[C@H](n5ccc(=O)[nH]c5=O)O[C@@H]4COP(=O)(O)O[C@H]4[C@@H](O)[C@H](n5cnc6c(N)ncnc65)O[C@@H]4COP(=O)(O)O[C@H]4[C@@H](O)[C@H](n5ccc(N)nc5=O)O[C@@H]4CO)O[C@H]3n3ccc(=O)[nH]c3=O)C2=O)ccc1[N+](=O)[O-]` (some centres not stated), in the experiment on Aequorea victoria [5], the outcome was Active. Besides, the Tm with Aequorea victoria [2] worked out at 81.2 °C. For the same compound, the Activity in the experiment with Aequorea victoria [6] was 100%. Moreover, the ΔTm in the experiment on Aequorea victoria [4] came out at 24 °C.
